Assay results taken from patent US5366983A, “Use of quaternary ammonium compounds to remove salmonella contamination from meat products” (The Board of Trustees of The University of Arkansas, priority 1992, dated 1994).
Entries after “also recorded” stand apart in the source; their conditions may differ. Where two headings read alike, the source gives them in different places.

Assays:
[1] = test system: Salmonella typhimurium TA100; experiment: Salmonella reversion assay, TA100
Procedure: (§1) Test strains TA98 and TA100 were obtained from Bruce N. Ames (University of California, Berkley, Calif.). Mutagenicities were determined both in the absence of and in the presence of a mammalian liver S9 activating system. S9 is the 9000×g supernatant prepared from liver homogenates from Aroclor 1254 stimulated male Sprague Dawley rats. The S9 was purchased from Molecular Toxicology, Inc. (Anapolis, Md.).
(§2) Bacterial broth cultures were grown overnight at 37° with shaking in Oxoid Broth #2. For assays in the absence of S9, a 0.5 ml aliquot of 100 mM Sodium Phosphate Buffer, pH 7.4, was added to sterile 13×100 mm capped culture tubes. For assays in the presence of S9, a 0.5 ml aliquot of 10% S9 mix was added. The S9 mix consisted of 8 mM magnesium chloride, 33 mM potassium chloride, 5 mM glucose-6-phosphate, 4 mM NADP, 100 mM sodium phosphate, pH 7.4 and S9 in a concentration of approximately 1.46 mg protein/ml.
(§3) The culture tubes were placed in an ice bath and 0.1 ml of the bacterial suspension and 0.1 ml of a DMSO solution of the test compound were added. The mixture was vortexed gently and incubated at 37° for 20 minutes with shaking in a water bath. Molten top agar (2.0 ml) containing 0.5 mM histidine HCl and 0.5 mM biotin were added, and the mixture was vortexed gently and poured onto a minimal glucose plate. After allowing the agar to solidify, the plates were inverted and placed in a 37° incubator in the dark for 48 hours. The revertant (mutant) colonies were counted and the background lawn was examined on all plates. A response that was two times that of the DMSO solvent control was considered a positive response.

[2] = test system: Salmonella typhimurium TA98; experiment: Salmonella reversion assay, TA98
Procedure: as §1, §2, §3

[3] = test system: Salmonella typhimurium TA100; experiment: Salmonella reversion assay after heating at 205° C., TA100; assay type: cell-based
Procedure: (§4) Test strains TA98 and TA100 were used. Again, mutagenicities were determined both in the absence and in the presence of the mammalian liver S9 activating system.
(§5) A response that was two times that of the solvent control was considered a positive response.

[4] = test system: Salmonella typhimurium TA98; experiment: Salmonella reversion assay after heating at 205° C., TA98; assay type: cell-based
Procedure: as §4, §5

[5] = test system: Salmonella typhimurium on chicken skin; experiment: Effect of surfactants on Salmonella attached to chicken skin, drumsticks (Tables F1-F4); settings: 4° C.
Procedure: The following experiments utilizing chicken legs were conducted to determine the killing potential of a variety of surfactants against Salmonella on the skin and free in solutions. To this end, chicken legs obtained from the Department of Agriculture at the University of Arkansas, Fayetteville, were incubated for thirty minutes at room temperature with a 1:5000 dilution of Salmonella typhimurium. The chicken legs were removed five at a time and then rinsed twice in tap water to remove the unattached and excess Salmonella. The rinse water was sampled, diluted, and then plated onto XLD pour plates. […] The chicken legs were then removed and rinsed twice in tap water to remove the released Salmonella and excess chemicals. Rinses were then sampled, diluted, and then plated onto XLD pour plates.
The chicken legs were then individually washed with 100 ml sterile double distilled water, and then shaken fifty times. Samples of the wash H2 O were diluted and plated onto XLD pour plates. The chicken legs were further swabbed after the washing step above. The swabs were then plated onto the XLD plates. A set of wash samples were enriched with TT Broth Base Hajna and then plated onto XLD plates.
All of the samples were plated in 1 ml aliquots onto XLD pour plates. A positive control sample incubated in sterile double distilled water at 4° C. was run for each of the aforementioned conditions. Treatments occurred at both 4° C. and 25° C. The data is reported as the mean number of CFU/ml. The ratio in the table represents the number of chicken legs out of a sample of ten chicken legs producing the notated number of colonies, as indicated by the +, ++, +++, or ++++.

[6] = test system: Salmonella typhimurium on chicken skin; experiment: Prevention of attachment of Salmonella on excised chicken skin (Table F5); settings: for CFU/ml on XLD agar: rinse water; for CFU/ml on XLD agar / Nitrocellulose lift (# of colonies): 30 minutes at room temperature; for Nitrocellulose lift (# of colonies): skin
Procedure: To determine the ability of surfactants to inhibit attachment or produce detachment of Salmonella, the following experiment was conducted. A hole was bored into the bottom of a 150 ml specimen cup. Chicken skin was excised from a drum stick and then placed over the cap of the specimen cup, and then the cap was screwed on. S. typhimurium was diluted 1:5000 with PBS or a surfactant. The surfactants were diluted appropriately. The skin was then inoculated with the solution containing the S. typhimurium and the surfactant for 30 minutes at room temperature.
Following incubation, the skin was washed. The rinse water was diluted appropriately in PBS and then plated onto XLD pour plates. The S. typhimurium was counted and reported as CFU/ml. The skin was swabbed so as to remove any remaining S. typhimurium using a nitroellulose lift and the CFU's/ml on the lift were also counted.

[7] = test system: Salmonella typhimurium ATCC 14028 attached to human buccal epithelial cells; assay type: cell-based; settings: for adherence, mean value of attached bacteria: Table A-1
Procedure: Studies were conducted on the attachment of Salmonella typhimurium to human buccal epithelial cells using the modified procedure of Boussard et al., International J. Pharmaceutics 53: 253-256 (1989). In this study, the activities of cationic and anionic surfactant compounds as well as certain chelating agents were compared on the detachment of S. typhimurium from epithelial cells.
To this end, bacteria were grown on nutrient agar for 16 hours at 37° C. The cells were suspended in 0.008 M phosphate buffered saline (PBS) at pH 7.2 and washed two times at 4500 rpm for 10 minutes. The last suspension was diluted in PBS to obtain a cell concentration of 0.5 to 1×10^9 cells/ml. Human epithelial cells were obtained by swabbing the buccal surface of a healthy, nonsmoking donor. […] The number of living cells was estimated and the suspension diluted to 0.5 to 1×10^5 cells/ml.
Next, the suspension of the human buccal cells was mixed with an equal volume of the bacterial suspension (3.0 ml), or PBS (0.8 ml). Contact was allowed for 1.5 hours at 35° C. under agitation. The mixtures were then centrifuged for 10 minutes at 4500 rpm. Each suspension, 1.0 ml, was transferred into Eppendorf vials and washed with PBS at 1500 rpm for 10 minutes. After the washing, the cells were treated with 1.0 ml PBS or 1.0 ml of the test chemical solution. Treatment was performed by suspending and vortexing on a low speed for 30 seconds followed by centrifugation at 1500 rpm for 10 minutes.
After the treatment, the cells were washed once with PBS and then 20 μl of erythrosin B was added to each vial. The suspension was centrifuged at 1500 rpm for 10 minutes, and the cells were washed twice under the same conditions. The final pellet was suspended in 300 μl of PBS. This suspension was spread out onto microscope slides and dried overnight at room temperature. After counter staining with methylene blue, the slides were microscopically examined under oil immersion.

[8] = test system: Salmonella typhimurium ATCC 14028; experiment: Effect on viability of Salmonella in suspension (Tables D-1 to D-3); assay type: cell-based; settings: for bacterial viability: Table D-3
Procedure: EC50 values for four of the compounds were calculated from the bactericidal activity of the compounds as a function of molar concentration by a nonlinear regression algorithm.
In addition to the quaternary ammonium compounds, the antimicrobial activities of chelating agents Na2 -EDTA and EGTA were investigated. Na2 -EDTA was purchased from the Sigma Chemical Company (St. Louis, Mo.). Na2 -EDTA was dissolved in 0.04 M PPB prior to the assay and further dilutions were made in the same buffer.
EGTA was purchased from the Aldrich Chemical Company (Milwaukee, Wis.). EGTA was dissolved in 0.04 M PPB according to the procedure described by Harafuji and Ogawa (J. Biochem. 87:1305-1312 (1980)). After heating EGTA for 15 minutes at 80° C., the pH was adjusted to 7.0 by addition of NaOH. EGTA was filter-sterilized using a 0.2 μm Acro disc filter (Gelman Sciences; Ann Arbor, Mich.) prior to the assay. Further dilutions were made in sterile PPB.

| Compound | Enrichment, chicken legs out of ten ([5]; 0.1%) | Rinse H2O ([5]; 0.1%) | Surfactant Solution ([5]; 0.1%) | Swabs, chicken legs producing the notated number of colonies ([5]; 0.1%) | Swabs, colonies ([5]; 0.1%) | Wash H2O, chicken legs producing the notated number of colonies ([5]; 0.1%) | Wash H2O, colonies ([5]; 0.1%) | Enrichment, chicken legs out of ten ([5]; 0.5%) | Rinse H2O ([5]; 0.5%) | Surfactant Solution ([5]; 0.5%) | Swabs, chicken legs producing the notated number of colonies ([5]; 0.5%) | Swabs, colonies ([5]; 0.5%) | Enrichment, chicken legs out of ten ([5]; 1.0%) | Rinse H2O ([5]; 1.0%) | Surfactant Solution ([5]; 1.0%) | Swabs, chicken legs producing the notated number of colonies ([5]; 1.0%) | Swabs, colonies ([5]; 1.0%) | CFU/ml on XLD agar [6] | also measured |
| --- | --- | --- | --- | --- | --- | --- | --- | --- | --- | --- | --- | --- | --- | --- | --- | --- | --- | --- | --- |
| Nc1ccc2cc3ccccc3cc2c1 [2aminoanthracene, reference compound] | – | – | – | – | – | – | – | – | – | – | – | – | – | – | – | – | – | – | control reversion frequency ([1]; TA100, +S9, 2.5 μg/plate): 1497 ± 68 Revertants/plate; control reversion frequency ([2]; TA98, +S9, 2.5 μg/plate): 901 ± 90 Revertants/plate; control reversion frequency ([3]; TA100, +S9, 2.5 μg/plate): 1103 ± 84 Revertants/plate; control reversion frequency ([4]; TA98, +S9, 2.5 μg/plate): 909 ± 85 Revertants/plate |
| Benzalkonium Chloride [reference compound] | 1/10 | + (1-10) | 0 CFU/ml | 6/10 | + (1-10) | 4/10 | + (1-10) | 1/10 | 0 CFU/ml | 0 CFU/ml | 1/10 | + (1-10) | 0/10 | 0 CFU/ml | 0 CFU/ml | 1/10 | ++ (11-100) | 0 CFU/ml | Wash H2O, colonies ([5]; 0.5%): 0 CFU/ml; Wash H2O, colonies ([5]; 1.0%): 0 CFU/ml; Nitrocellulose lift (# of colonies) [6]: OG(R) |
| O=C(O)CN(CCOCCOCCN(CC(=O)O)CC(=O)O)CC(=O)O [EGTA, reference compound] | – | – | – | – | – | – | – | – | – | – | – | – | – | – | – | – | – | – | effect on bacteria attached to the epithelial cells (in words) ([7]; chelating agents, Na2-EDTA at 1250 μg/ml): no significant effect; bacterial viability ([8]; 1,250 μg/ml): 1.55 ± 0.09 × 10^9 CFU/ml; bacterial viability ([8]; 2,500 μg/ml): 1.45 ± 0.03 × 10^9 CFU/ml; bacterial viability ([8]; 5,000 μg/ml): 1.51 ± 0.18 × 10^8 CFU/ml; bactericidal effect against S. typhimurium (in words) ([8]; viability testing in suspension): ineffective; also recorded: no bactericidal effect |
| CC(C)(C)CC(C)(C)c1ccc(OCCOCC[N+](C)(C)Cc2ccccc2)cc1 [Benzethonium Chloride, reference compound] | 2/10 | + (1-10) | 0 CFU/ml | 9/10 | ++ (11-100) | 1/10 | + (1-10) | 0/10 | + (1-10) | 0 CFU/ml | 8/10 | ++ (11-100) | 0/10 | + (1-10) | 0 CFU/ml | 5/10 | ++ (11-100) | 10 CFU/ml | Wash H2O, chicken legs producing the notated number of colonies ([5]; 0.5%): 0/10; Wash H2O, chicken legs producing the notated number of colonies ([5]; 1.0%): 0/10; preventing attachment of S. typhimurium on chicken skin (in words) [6]: most effective in preventing Salmonella contamination of chicken skin; Nitrocellulose lift (# of colonies) [6]: 250 # of colonies |
| CCCCCCCCCCCCCCCC[n+]1ccccc1 [CPB, cetylpyridinium bromide] | – | – | – | – | – | – | – | – | – | – | – | – | – | – | – | – | – | – | adherence, mean value of attached bacteria ([7]; 10 ug/ml): 28 ± 28; adherence, mean value of attached bacteria ([7]; 25 ug/ml): 23 ± 17; adherence, mean value of attached bacteria ([7]; 50 ug/ml): 25 ± 10 |
| O=C1NCCN1c1ncc([N+](=O)[O-])s1 [Niridazole, reference compound] | – | – | – | – | – | – | – | – | – | – | – | – | – | – | – | – | – | – | control reversion frequency ([1]; TA100, -S9, 0.2 μg/plate): 637 ± 57 Revertants/plate; control reversion frequency ([2]; TA98, -S9, 0.2 μg/plate): 358 ± 19 Revertants/plate; control reversion frequency ([3]; TA100, -S9, 0.2 μg/plate): 729 ± 30 Revertants/plate; control reversion frequency ([4]; TA98, -S9, 0.2 μg/plate): 126 ± 7 Revertants/plate |
| C[C@H](CCC(=O)O)[C@H]1CC[C@H]2[C@@H]3CC[C@@H]4C[C@H](O)CC[C@]4(C)[C@H]3C[C@H](O)[C@]12C [Deoxycholic Acid, reference compound] | 10/10 | + (1-10) | ++ (11-100) | 10/10 | ++ (11-100) | 10/10 | ++ (11-100) | 10/10 | + (1-10) | + (1-10) | 10/10 | + (1-10) | 10/10 | + (1-10) | ++ (11-100) | 9/10 | ++ (11-100) | 90 CFU/ml | Wash H2O, chicken legs producing the notated number of colonies ([5]; 0.5%): 10/10; Wash H2O, colonies ([5]; 0.5%): ++ (11-100); Wash H2O, chicken legs producing the notated number of colonies ([5]; 1.0%): 10/10; Wash H2O, colonies ([5]; 1.0%): ++ (11-100) |
